The structures appear in SMILES notation.

In the assay the target is human recombinant H-PGDS (Homo sapiens, UniProt O60760). In words: Fluorescence intensity h-PGDS TBA enzyme assay. It counts as biochemical. The following applies: Examples up to 622 (and 3a, 3b).
human recombinant H-PGDS, sequence (O60760 whole entry): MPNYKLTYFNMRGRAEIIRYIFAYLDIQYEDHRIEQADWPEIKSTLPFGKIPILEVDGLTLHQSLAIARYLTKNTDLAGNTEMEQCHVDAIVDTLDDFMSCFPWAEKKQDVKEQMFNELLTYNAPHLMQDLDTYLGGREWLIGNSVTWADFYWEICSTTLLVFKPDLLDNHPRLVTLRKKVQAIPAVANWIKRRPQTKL
In the case of `Cn1ccnc1-c1ccc(CN2CCC(NC(=O)c3ccc(-c4cccc(F)c4)nc3)CC2)cc1` [Example 376, 6-(3-Fluorophenyl)-N-{1-[4-(1-methyl-1H-imidazol-2-yl)benzyl]piperidin-4-yl}nicotinamide], the concentration for half-maximal inhibition (IC50) (usually the concentration needed to halve the response being measured) stood at 0.876 nM. As for `O=C(NC1CCN(Cc2cccn3c(Br)cnc23)CC1)c1ccc(-c2cccc(F)c2)nc1` [Example 377, N-{1-[(3-Bromoimidazo[1,2-a]pyridin-8-yl)methyl]piperidin-4-yl}-6-(3-fluorophenyl)nicotinamide], the figure is 0.491 nM; as for `O=C(NC1CCN(Cc2ccc(=O)[nH]c2)CC1)c1ccc(-c2cccc(F)c2)nc1` [Example 378, 6-(3-Fluorophenyl)-N-{1-[(6-oxo-16-dihydropyridin-3-yl)methyl]piperidin-4-yl}nicotinamide], 1.41 nM; as for `CCOC(=O)c1cn2c(CN3CCC(NC(=O)c4ccc(-c5cccc(F)c5)nc4)CC3)cccc2n1` [Example 379, Ethyl 5-{[4-({[6-(3-fluorophenyl)pyridin-3-yl]carbonyl}amino)piperidin-1-yl]methyl}imidazo[1,2-a]pyridine-2-carboxylate], 1.43 nM. As for `Cc1ccc(-c2cccc(CN3CCC(NC(=O)c4ccc(-c5cccc(F)c5)nc4)CC3)c2)c(N)n1` [Example 380, N-{1-[3-(2-Amino-6-methylpyridin-3-yl)benzyl]piperidin-4-yl}-6-(3-fluorophenyl)nicotinamide], the figure is 1.25 nM.

Turning to `O=C(NC1CCN(Cc2cccc(-c3cncnc3)c2)CC1)c1ccc(-c2cccc(F)c2)nc1` [Example 381, 6-(3-Fluorophenyl)-N-[1-(3-pyrimidin-5-ylbenzyl)piperidin-4-yl]nicotinamide], the IC50 came out at 0.0854 nM. For the compound `O=C(NC1CCN(Cc2cn[nH]c2-c2ccccc2Cl)CC1)c1ccc(-c2cccc(F)c2)nc1` [Example 382, N-(1-{[5-(2-Chlorophenyl)-1H-pyrazol-4-yl]methyl}piperidin-4-yl)-6-(3-fluorophenyl)nicotinamide], the half-maximal inhibitory concentration (IC50) was 0.681 nM. As for `Cc1ccn2c(CN3CCC(NC(=O)c4ccc(-c5cccc(F)c5)nc4)CC3)c(C)nc2c1` [Example 383, N-{1-[(2,7-Dimethylimidazo[1,2,a]pyridin-3-yl)methyl]piperidin-4-yl}-6-(3-fluorophenyl)nicotinamide], the 50% inhibitory concentration (IC50) amounted to 1.25 nM. As for `O=C(NC1CCN(Cc2ccn[nH]2)CC1)c1ccc(-c2cccc(F)c2)nc1` [Example 384, 6-(3-Fluorophenyl)-N-[1-(1H-pyrazol-5-ylmethyl)piperidin-4-yl]nicotinamide], the figure is 0.959 nM; as for `N#CC1(c2ccc(CN3CCC(NC(=O)c4ccc(-c5cccc(F)c5)nc4)CC3)cc2)CC=CC1` [Example 385, N-{1-[4-(1-Cyanocyclopent-3-en-1-yl)benzyl]piperidin-4-yl}-6-(3-fluorophenyl)nicotinamide], 11.7 nM; as for `O=C(NC1CCN(Cc2cnn3c2CCCC3)CC1)c1ccc(-c2cccc(F)c2)nc1` [Example 386, 6-(3-Fluorophenyl)-N-[1-(4,5,6,7-tetrahydropyrazolo[1,5-a]pyridin-3-ylmethyl)piperidin-4-yl]nicotinamide], 1.2 nM. On to `O=C(NC1CCN(Cc2cnn3c2CCCCC3)CC1)c1ccc(-c2cccc(F)c2)nc1` [Example 387, 6-(3-Fluorophenyl)-N-[1-(5,6,7,8-tetrahydro-4H-pyrazolo[1,5-a]azepin-3-ylmethyl)piperidin-4-yl]nicotinamide], for which the IC50 is 1.85 nM.

For the compound `CCc1noc(COc2cccc(CN3CCC(NC(=O)c4ccc(-c5cccc(F)c5)nc4)CC3)c2)n1` [Example 388, N-(1-{3-[(3-Ethyl-1,2,4-oxadiazol-5-yl)methoxy]benzyl}piperidin-4-yl)-6-(3-fluorophenyl)nicotinamide], the IC50 came to 0.951 nM. For the compound `Cc1nccc(CN2CCC(NC(=O)c3ccc(-c4cccc(F)c4)nc3)CC2)n1` [Example 389, 6-(3-Fluorophenyl)-N-{1-[(2-methylpyrmidin-4-yl)methyl]piperidin-4-yl}nicotinamide], the IC50 was 2.23 nM. As for `CN(c1nccc(CN2CCC(NC(=O)c3ccc(-c4cccc(F)c4)nc3)CC2)n1)C1CCCCC1` [Example 390, N-[1-({2-[Cyclohexyl(methyl)amino]pyrimidin-4-yl}methyl)piperidin-4-yl]-6-(3-fluorophenyl)nicotinamide], the figure is 11.6 nM; as for `COCCCNc1nccc(CN2CCC(NC(=O)c3ccc(-c4cccc(F)c4)nc3)CC2)n1` [Example 391, 6-(3-Fluorophenyl)-N-[1-({2-[(3-methoxypropyl)amino]pyrimidin-4-yl}methyl)piperidin-4-yl]nicotinamide], 1.2 nM; as for `CN(C)c1nccc(CN2CCC(NC(=O)c3ccc(-c4cccc(F)c4)nc3)CC2)n1` [Example 392, N-(1-{[2-(Dimethylamino)pyrimidin-4-yl]methyl}piperidin-4-yl)-6-(3-fluorophenyl)nicotinamide], 0.849 nM. As for `O=C(NC1CCN(Cc2ccnc(NC3CC3)n2)CC1)c1ccc(-c2cccc(F)c2)nc1` [Example 393, N-(1-{[2-(Cyclopropylamino)pyrimidin-4-yl]methyl}piperidin-4-yl)-6-(3-fluorophenyl)nicotinamide], the figure is 1.18 nM; as for `O=C(NC1CCN(Cc2ccn(CCc3ccccc3)n2)CC1)c1ccc(-c2cccc(F)c2)nc1` [Example 394, 6-(3-Fluorophenyl)-N-(1-{[1-(2-phenylethyl)-1H-pyrazol-3-yl]methyl}piperidin-4-yl)nicotinamide], 0.379 nM. As for `O=C(NC1CCN(Cc2ccnn2CCc2ccccc2)CC1)c1ccc(-c2cccc(F)c2)nc1` [Example 395, 6-(3-Fluorophenyl)-N-(1-{[1-(2-phenylethyl)-1H-pyrazol-5-yl]methyl}piperidin-4-yl)nicotinamide], the figure is 1.43 nM; as for `Cn1ccc(CN2CCC(NC(=O)c3ccc(-c4cccc(F)c4)nc3)CC2)n1` [Example 396, 6-(3-Fluorophenyl)-N-{1-[(1-methyl-1H-pyrazol-3-yl)methyl]piperidin-4-yl}nicotinamide], 1.45 nM. On to `O=C(NC1CCN(Cc2ccnc(N3CCOCC3)n2)CC1)c1ccc(-c2cccc(F)c2)nc1` [Example 397, 6-(3-Fluorophenyl)-N-{1-[(2-morpholin-4-ylpyrimidin-4-yl)methyl]piperidin-4-yl}nicotinamide], for which the half-maximal inhibitory concentration (IC50) was determined as 1.47 nM. For `CCN(C)c1ncc2c(n1)CCC(CN1CCC(NC(=O)c3ccc(-c4cccc(F)c4)nc3)CC1)C2` (stereo not shown) [Example 398, N-[1-({2-[Ethyl(methyl)amino]-5,6,7,8-tetrahydroquinazolin-6-yl}methyl)piperidin-4-yl]-6-(3-fluorophenyl)nicotinamide], the IC50 is 8.56 nM.

Regarding `O=C(NC1CCN(CC2CCc3nc(CC4CC4)ncc3C2)CC1)c1ccc(-c2cccc(F)c2)nc1` (stereo not shown) [Example 399, N-(1-{[2-(cyclopropylmethyl)-5,6,7,8-tetrahydroquinazolin-6-yl]methyl}piperidin-4-yl)-6-(3-fluorophenyl)nicotinamide], the half-maximal inhibitory concentration (IC50) is 1.02 nM. On to `CC(C)c1ncc2c(n1)CCC(CN1CCC(NC(=O)c3ccc(-c4cccc(F)c4)nc3)CC1)C2` (stereo not shown) [Example 400, 6-(3-Fluorophenyl)-N-{1-[(2-isopropyl-5,6,7,8-tetrahydroquinazolin-6-yl)methyl]piperidin-4-yl}nicotinamide], for which the 50% inhibitory concentration (IC50) came to 1.04 nM.

Source of the values: patent US7902373B2 (Pfizer Inc, priority 2006, dated 2011).
